From patent publication EP0013144A1, “Substituted diphenylamine derivatives, compositions and herbicidal uses thereof, and processes for their preparation” (ICI AUSTRALIA LIMITED, priority 1978, dated 1980)

Tests used:
Format in all cases: in vivo
[1] = tested on: Ryegrass; assay: Pre-emergence herbicidal activity (Example 31); parameters: key: 0-3 scale: 0 = 0-25% damage, 3 = 75-99% kill, 3+ = 100% kill; conditions: after three weeks
How it was run: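 Ratings run from 0 (0–25% damage) to 3 (75–99% kill), with 3+ meaning complete kill, assessed visually three weeks after spraying. Treatment was applied to soil right after sowing, before germination was triggered by overhead watering in the glasshouse.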

[2] = tested on: Wheat; assay: Post-emergence herbicidal activity (Example 32); parameters: key: 0-3 scale: 0 = 0-25% damage, 3 = 75-99% kill, 3+ = 100% kill; conditions: 3 weeks after spraying
How it was run: (§1)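 Compounds were formulated as emulsifiable concentrates in toluene with surfactants (oils, waxy solids) or ball-milled aqueous suspensions (crystalline solids), then diluted with water. Glasshouse seedlings in soil, grown to about 10 to 12.5 cm, were sprayed. Damage was scored visually after 3 weeks against untreated controls on a 0–3 scale (3+ = 100% kill).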

[3] = tested on: Ipomea; assay: Post-emergence herbicidal activity (Example 32); conditions: 3 weeks after spraying
How it was run: as §1

[4] = tested on: Japanese millet; assay: Post-emergence herbicidal activity (Example 32); conditions: 3 weeks after spraying
How it was run: as §1

[5] = tested on: Mustard; assay: Post-emergence herbicidal activity (Example 32); conditions: 3 weeks after spraying
How it was run: as §1

[6] = tested on: Ryegrass; assay: Post-emergence herbicidal activity (Example 32); conditions: 3 weeks after spraying
How it was run: as §1

[7] = tested on: Sunflower; assay: Post-emergence herbicidal activity (Example 32); conditions: 3 weeks after spraying
How it was run: as §1

[8] = tested on: Maize; assay: Pre-emergence herbicidal test, fibre trays (Example 33); parameters: key: 0 = 0-20% damage, 5 = complete kill, vs untreated control; conditions: after 21 days
Protocol: (§2) The compounds were formulated for test by mixing an appropriate amount with 5 ml of an emulsion prepared by diluting 160 ml of a solution containing 21.S g per litre of "Span" 80 and 78.2 g per litre of "Tween" 20 in methylcyclohexanone to 500 ml with water. "Span" 80 is a Trade Mark for a surface-active agent comprising sorbitan monolaurate. "Tween" 20 is a Trade Mark for a surface-active agent comprising a condensate of sorbitan monolaurate with 20 molar proportions of ethylene oxide. Each 5 ml emulsion containing a test compound was'then diluted to 40 ml with water and sprayed on to young pot plants (post-emergence test) of the species named in Table 5 below. Damage to test plants was assessed after 14 days on a scale of 0 to 5 where 0 is 0 to 20% damage and 5 is complete kill. In a test for pre-emergence herbicidal activity, seeds of the test plants were sown in a shallow slit formed in the surface of soil in fibre trays. The surface was then levelled and sprayed, and fresh soil then spread thinly over the sprayed surface. Assessment of herbicidal damage was carried out after 21 days using the same scale of 0 to 5 as the post-emergence test. In both cases the degree of herbicidal damage was assessed by comparison with untreated control plants. A dash (-) means that no experiment was carried out.

[9] = tested on: Rice; assay: as above; parameters: key: 0 is 0 to 20% damage; 5 is complete kill; conditions: after 21 days
Protocol: as §2

[10] = tested on: Cotton; assay: as above; conditions: after 21 days
Protocol: as §2

[11] = tested on: Sugar beet; assay: as above; conditions: after 21 days
Protocol: as §2

[12] = tested on: Maize; assay: Post-emergence herbicidal test, young pot plants (Example 33); parameters: key: 0 is 0 to 20% damage; 5 is complete kill; conditions: after 14 days
Protocol: as §2

[13] = tested on: Rice; assay: as above; parameters: key: 0 is 0 to 20% damage; 5 is complete kill; conditions: after 14 days
Protocol: as §2

[14] = tested on: Winter wheat; assay: as above; parameters: key: 0 = 0-20% damage, 5 = complete kill, vs untreated control; conditions: after 14 days
Protocol: as §2

[15] = tested on: Amaranthus retroflexus; assay: as above; conditions: after 14 days
Protocol: as §2

[16] = tested on: Chenopodium album; assay: as above; conditions: after 14 days
Protocol: as §2

[17] = tested on: Cotton; assay: as above; conditions: after 14 days
Protocol: as §2

[18] = tested on: Ipomea purpurea; assay: as above; conditions: after 14 days
Protocol: as §2

[19] = tested on: Soy bean; assay: as above; conditions: after 14 days
Protocol: as §2

[20] = tested on: Sugar beet; assay: as above; conditions: after 14 days
Protocol: as §2

| Compound | damage to plants, Rg ([1]; 1 kg/ha) | damage to plants, Rg ([1]; 5 kg/ha) | damage to plants, Wh ([2]; 1 kg/ha) | damage to plants, Wh ([2]; 5 kg/ha) | damage to plants, Ip ([3]; 1 kg/ha) | damage to plants, Ip ([3]; 5 kg/ha) | damage to plants, Jm ([4]; 1 kg/ha) | damage to plants, Jm ([4]; 5 kg/ha) | damage to plants, Ms ([5]; 1 kg/ha) | damage to plants, Ms ([5]; 5 kg/ha) | damage to plants, Rg ([6]; 1 kg/ha) | damage to plants, Rg ([6]; 5 kg/ha) | damage to plants, Sf ([7]; 1 kg/ha) | damage to plants, Sf ([7]; 5 kg/ha) | herbicidal damage, Mz ([8]; 2.0 kg/ha) | herbicidal damage, Rc ([9]; 2.0 kg/ha) | herbicidal damage, Ct ([10]; 2.0 kg/ha) | herbicidal damage, Sb ([11]; 2.0 kg/ha) | damage to test plants, Mz ([12]; 2.0 kg/ha) | damage to test plants, Rc ([13]; 2.0 kg/ha) | other results |
| --- | --- | --- | --- | --- | --- | --- | --- | --- | --- | --- | --- | --- | --- | --- | --- | --- | --- | --- | --- | --- | --- |
| COC(=O)C(C)Oc1ccc(Nc2ccc(Cl)cc2[N+](=O)[O-])cc1 (stereo not drawn) [Compound 28] | 3 (3 represents 75 to 99% kill) | 3+ (3+ represents 100% kill) | 3 (3 represents 75 to 99% kill) | 3+ (3+ represents 100% kill) | 0 (0 represents 0 to 25% damage) | 0 (0 represents 0 to 25% damage) | 3+ (3+ represents 100% kill) | 3+ (3+ represents 100% kill) | 0 (0 represents 0 to 25% damage) | 0 (0 represents 0 to 25% damage) | 3+ (3+ represents 100% kill) | 3+ (3+ represents 100% kill) | 0 (0 represents 0 to 25% damage) | 0 (0 represents 0 to 25% damage) |  |  |  |  |  |  | herbicidal damage, Mz ([8]; 1.0 kg/ha): 0 (0 is 0 to 20% damage); herbicidal damage, Rc ([9]; 1.0 kg/ha): 1; herbicidal damage, Ct ([10]; 1.0 kg/ha): 0 (0 is 0 to 20% damage); herbicidal damage, Sb ([11]; 1.0 kg/ha): 0 (0 is 0 to 20% damage); damage to test plants, Mz ([12]; 1.0 kg/ha): 5; damage to test plants, Rc ([13]; 1.0 kg/ha): 4; damage to test plants, Ww ([14]; 1.0 kg/ha): 4; damage to test plants, Am ([15]; 1.0 kg/ha): 0 (0 is 0 to 20% damage); damage to test plants, Ca ([16]; 1.0 kg/ha): 0 (0 is 0 to 20% damage); damage to test plants, Ct ([17]; 1.0 kg/ha): 0 (0 is 0 to 20% damage); damage to test plants, Ip ([18]; 1.0 kg/ha): 0 (0 is 0 to 20% damage); damage to test plants, Sy ([19]; 1.0 kg/ha): 0 (0 is 0 to 20% damage); damage to test plants, Sb ([20]; 1.0 kg/ha): 1 |
| C#CCN(c1ccc(OC(C)C(=O)OC)cc1)c1ccc(C(F)(F)F)cc1[N+](=O)[O-] (stereo not drawn) [Compound 81] | 3 (3 represents 75 to 99% kill) | 3+ (3+ represents 100% kill) | 2 | 3 (3 represents 75 to 99% kill) | 0 (0 represents 0 to 25% damage) | 0 (0 represents 0 to 25% damage) | 3+ (3+ represents 100% kill) | 3+ (3+ represents 100% kill) | 0 (0 represents 0 to 25% damage) | 0 (0 represents 0 to 25% damage) | 3 (3 represents 75 to 99% kill) | 3+ (3+ represents 100% kill) | 0 (0 represents 0 to 25% damage) | 0 (0 represents 0 to 25% damage) | 3 | 4 | 0 (0 is 0 to 20% damage) | 0 (0 is 0 to 20% damage) | 4 | 4 | damage to test plants, Ww ([14]; 2.0 kg/ha): 4; damage to test plants, Am ([15]; 2.0 kg/ha): 0 (0 is 0 to 20% damage); damage to test plants, Ca ([16]; 2.0 kg/ha): 0 (0 is 0 to 20% damage); damage to test plants, Ct ([17]; 2.0 kg/ha): 0 (0 is 0 to 20% damage); damage to test plants, Ip ([18]; 2.0 kg/ha): 0 (0 is 0 to 20% damage); damage to test plants, Sy ([19]; 2.0 kg/ha): 0 (0 is 0 to 20% damage); damage to test plants, Sb ([20]; 2.0 kg/ha): 3 |
| COC(=O)C(C)Oc1ccc(N(C)c2ccc(Cl)cc2Cl)cc1 (stereo not drawn) [Compound 1, Methyl 2-[4-(2,4-dichloro-N-methylanilino)phenoxy]-propionate] | 1 | 3 (3 represents 75 to 99% kill) | 0 (0 represents 0 to 25% damage) | 1 | 0 (0 represents 0 to 25% damage) | 0 (0 represents 0 to 25% damage) | 3+ (3+ represents 100% kill) | 3+ (3+ represents 100% kill) | 0 (0 represents 0 to 25% damage) | 0 (0 represents 0 to 25% damage) | 3+ (3+ represents 100% kill) | 3+ (3+ represents 100% kill) | 0 (0 represents 0 to 25% damage) | 0 (0 represents 0 to 25% damage) | 0 (0 is 0 to 20% damage) | 0 (0 is 0 to 20% damage) | 0 (0 is 0 to 20% damage) | 0 (0 is 0 to 20% damage) | 5 | 0 (0 is 0 to 20% damage) | damage to test plants, Ww ([14]; 2.0 kg/ha): 3; damage to test plants, Am ([15]; 2.0 kg/ha): 2; damage to test plants, Ca ([16]; 2.0 kg/ha): 3; damage to test plants, Ct ([17]; 2.0 kg/ha): 1; damage to test plants, Ip ([18]; 2.0 kg/ha): 0 (0 is 0 to 20% damage); damage to test plants, Sy ([19]; 2.0 kg/ha): 1; damage to test plants, Sb ([20]; 2.0 kg/ha): 3 |
| COC(=O)C(C)Oc1ccc(N(C)c2ccc(Br)cc2[N+](=O)[O-])cc1 (stereo not drawn) [Compound 30] | 1 | 3+ (3+ represents 100% kill) | 2 | 3+ (3+ represents 100% kill) | 0 (0 represents 0 to 25% damage) | 0 (0 represents 0 to 25% damage) | 3+ (3+ represents 100% kill) | 3+ (3+ represents 100% kill) | 0 (0 represents 0 to 25% damage) | 0 (0 represents 0 to 25% damage) | 3+ (3+ represents 100% kill) | 3+ (3+ represents 100% kill) | 0 (0 represents 0 to 25% damage) | 0 (0 represents 0 to 25% damage) | 2 | 5 | 0 (0 is 0 to 20% damage) | 0 (0 is 0 to 20% damage) | 5 | 4 | damage to test plants, Ww ([14]; 2.0 kg/ha): 4; damage to test plants, Am ([15]; 2.0 kg/ha): 0 (0 is 0 to 20% damage); damage to test plants, Ca ([16]; 2.0 kg/ha): 0 (0 is 0 to 20% damage); damage to test plants, Ct ([17]; 2.0 kg/ha): 0 (0 is 0 to 20% damage); damage to test plants, Ip ([18]; 2.0 kg/ha): 0 (0 is 0 to 20% damage); damage to test plants, Sy ([19]; 2.0 kg/ha): 2; damage to test plants, Sb ([20]; 2.0 kg/ha): 0 (0 is 0 to 20% damage) |
